Measured values published in PubChem BioAssay (NCI).
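96-well plates; 48 h exposure; 5 concentrations. Endpoints by linear interpolation between flanking doses. Not reached: highest tested concentration assigned. Here, GI50 denotes the concentration required for 50% inhibition of growth. TGI: concentration producing complete growth inhibition.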

Legend:
Assay in all cases: inhibition of tumour cell growth, NCI panel, 48 h
[1] = system: SK-OV-3 ovarian
[2] = system: BT-549 breast
[3] = system: SW-620 colon
[4] = system: COLO 205 colon
[5] = system: NCI-H460 lung
[6] = system: UACC-62 melanoma
[7] = system: SN12C renal
[8] = system: KM12 colon
[9] = system: U251 CNS
[10] = system: MCF7 breast

Row | SMILES | TGI [1] | TGI [2] | TGI [3] | TGI [4] | TGI [5] | TGI [6] | TGI [7] | TGI [8] | TGI [9] | TGI [10] | GI50 [1] | GI50 [2] | GI50 [3] | GI50 [4] | GI50 [10] | GI50 [5] | GI50 [6] | GI50 [7] | GI50 [8] | GI50 [9]
1 | CC(=O)c1ccc2c(c1)N(CCCN1CCN(CCO)CC1)c1ccccc1C2 | 30.5 µM | 28.1 µM | 31.3 µM | 31.8 µM | 31 µM | 23 µM | 31.2 µM | 31.1 µM | 29.8 µM |  |  |  |  |  |  |  |  |  |  | 
2 | O=C(O)C(O)C(O)C(O)C(=O)CO (stereo not drawn) | > 100 µM | > 100 µM | > 100 µM | > 100 µM | > 100 µM | > 100 µM | > 100 µM | > 100 µM | > 100 µM | > 100 µM |  |  |  |  |  |  |  |  |  | 
3 | CCOC(=O)C(=O)NCCCN1CCOCC1 | > 100 µM |  | > 100 µM | > 100 µM | > 100 µM | > 100 µM | > 100 µM | > 100 µM | > 100 µM |  |  |  |  |  |  |  |  |  |  | 
4 | C1=CC(=[N+]2N=C(c3ccccc3)CC2c2ccccc2)C=CC1=C1SC(c2ccccc2)(c2ccccc2)c2ccccc21 (stereo not drawn) | > 100 µM | > 100 µM | > 100 µM |  | > 100 µM | > 100 µM | > 100 µM | > 100 µM | > 100 µM | > 100 µM |  |  |  |  |  |  |  |  |  | 
5 | CCCCCOC(=O)c1cc2cc(CCl)ccc2oc1=O | 45 µM | 40.6 µM | 56.6 µM | 16.3 µM | 34.9 µM | 5.91 µM | 28.1 µM | 31.2 µM | 34.9 µM | > 56.9 µM |  |  |  |  |  |  |  |  |  | 
6 | Nc1cc(-c2ccc(Cl)cc2)nn1-c1nc2ccccc2nc1-c1ccccc1 | > 100 µM | > 100 µM | > 100 µM | > 100 µM | > 100 µM | > 100 µM | > 100 µM | > 100 µM | > 100 µM | > 100 µM |  |  |  |  |  |  |  |  |  | 
7 | CCCSc1ccc2[nH]c(N3C(=O)/C(=C/c4cc(OC)c(OC)c(OC)c4)N=C3c3ccccc3)cc2c1 | > 25.3 µM | 37.4 µM | > 37.5 µM | > 30.2 µM | > 37.5 µM | > 37.5 µM | > 37.5 µM | > 37.5 µM | > 37.5 µM | > 37.5 µM |  |  |  |  |  |  |  |  |  | 
8 | COC(CN(C=O)[C@@H](c1ccc(Cl)cc1)c1cc2ccccc2o1)OC | 26.6 µM |  | 31.4 µM | 33.5 µM | 33.3 µM | 29.7 µM | 31.1 µM | 31.4 µM | 31.8 µM | 34.8 µM |  |  |  |  |  |  |  |  |  | 
9 | O=C1/C(=C\c2ccc(F)cc2)CCOc2c1ccc1ccccc21 | > 100 µM | 77.3 µM | > 100 µM | > 100 µM | 97.9 µM | > 100 µM | > 89.2 µM | 31.5 µM | > 100 µM | 51.9 µM |  |  |  |  |  |  |  |  |  | 
10 | O=c1c2ccccc2[nH]c(=S)n1-c1ccc(N=Nc2cccc3cc(O)ccc23)cc1 | > 100 µM | > 100 µM | > 100 µM | > 100 µM | > 100 µM | > 100 µM | > 100 µM | > 100 µM | > 100 µM | > 100 µM |  |  |  |  |  |  |  |  |  | 
11 | COC(=O)C[C@H](COCc1ccccc1)NC(=O)C[C@H](COCc1ccccc1)NC(=O)OC(C)(C)C | 59.8 µM | 51.9 µM | > 100 µM | > 100 µM |  | > 100 µM | 80.6 µM | > 100 µM | 67.7 µM | 51.1 µM |  |  |  |  |  |  |  |  |  | 
12 | O=C1c2ccccc2C(C2c3ccccc3C(=O)c3cc(Br)ccc32)c2ccc(Br)cc21 (stereo not drawn) | > 100 µM | > 100 µM | > 100 µM | > 100 µM |  | > 100 µM | > 100 µM | > 100 µM | > 100 µM | > 100 µM |  |  |  |  |  |  |  |  |  | 
13 | Nc1ccc(Oc2ccc(C34CC5CC(C3)CC(c3ccc(Oc6ccc(N)cc6)cc3)(C5)C4)cc2)cc1 | > 70.1 µM | 33.6 µM | > 100 µM | > 58.7 µM | 22.6 µM | 27.3 µM | > 55.2 µM | > 45.4 µM | 21.6 µM | 21.6 µM |  |  |  |  |  |  |  |  |  | 
14 | O=C1CC2(CCC(O)(c3cccs3)C(C(=O)c3cccs3)C2)C(=O)c2ccccc2N1 (stereo not drawn) | > 100 µM | > 100 µM | > 100 µM | > 100 µM | 46.6 µM | > 100 µM | > 100 µM |  | > 100 µM | > 100 µM |  |  |  |  |  |  |  |  |  | 
15 | CC(C)(C)[Si](C)(C)OCC1OC(n2cnc3c(N)ncnc32)CC1OS(C)(=O)=O (stereo not drawn) | > 100 µM | > 100 µM | > 100 µM | > 100 µM | > 100 µM | > 100 µM | > 100 µM | > 100 µM | > 100 µM | > 100 µM |  |  |  |  |  |  |  |  |  | 
16 | C/C(N=Nc1nc2ccccc2[nH]1)=C1/C=CC=CN1O | > 100 µM | > 100 µM | > 100 µM | > 100 µM | > 100 µM | > 100 µM | > 100 µM | > 100 µM | > 100 µM | > 100 µM |  |  |  |  |  |  |  |  |  | 

Row | SMILES | TGI [1] | TGI [2] | TGI [3] | TGI [4] | TGI [5] | TGI [6] | TGI [7] | TGI [8] | TGI [9] | TGI [10] | GI50 [1] | GI50 [2] | GI50 [3] | GI50 [4] | GI50 [10] | GI50 [5] | GI50 [6] | GI50 [7] | GI50 [8] | GI50 [9]
17 | COc1ccc(C2c3cc4c(cc3OC(O)(CO)C2C(=O)O)OCO4)cc1 (stereo not drawn) (tested in a mixture with another compound) | 98.5 µM |  | 37.6 µM | > 100 µM | 36.3 µM | 36.4 µM | 54.1 µM | 67.2 µM | 36.5 µM |  |  |  |  |  |  |  |  |  |  | 
18 | CC(C)C1OC(=O)/C=C/C=C/C=C/C=C/C=C/CC(O)C(C)C(O)CC(O)CC(O)CC(O)CC(O)CC(O)CC(O)/C=C/C1C (stereo not drawn) | > 100 µM |  | > 100 µM |  | > 100 µM | > 100 µM |  | > 100 µM | > 100 µM | > 100 µM |  |  |  |  |  |  |  |  |  | 
19 | CSCCC(NC(=O)OCc1ccccc1)P(=O)(O)c1ccccc1 (stereo not drawn) | > 100 µM |  | > 100 µM | > 100 µM | > 100 µM |  | > 100 µM |  | > 100 µM | > 100 µM |  |  |  |  |  |  |  |  |  | 
20 | O=S(=O)(O)c1cc(N=[N+]([O-])c2cc(S(=O)(=O)O)c3ccccc3c2)cc2ccccc12 | > 100 µM | 39 µM | > 100 µM | > 100 µM | > 100 µM | > 100 µM | 53.8 µM | > 100 µM | > 100 µM | > 100 µM |  |  |  |  |  |  |  |  |  | 
21 | Nc1ccc(-c2nc3cc(F)ccc3s2)cc1CO | 49.3 µM | 51.2 µM | > 100 µM | > 100 µM | > 100 µM | > 58.7 µM | > 100 µM | > 100 µM | 41.5 µM | 19.7 µM |  |  |  |  |  |  |  |  |  | 
22 | CC(=O)Oc1ccc(CO)cc1OC(C)=O | > 100 µM |  | > 100 µM | > 100 µM | > 100 µM | > 100 µM | > 100 µM | > 100 µM | > 100 µM |  |  |  |  |  |  |  |  |  |  | 
23 | COc1ccc(C(=O)N(C(=O)N2CCN(c3ccccc3)CC2)S(=O)(=O)c2ccccc2)cc1 | > 100 µM | > 100 µM | > 100 µM | 31.8 µM | > 100 µM | 39.6 µM | 55.9 µM | > 100 µM | 35.3 µM | > 100 µM |  |  |  |  |  |  |  |  |  | 
24 | COC(OC)C1OC(CO)C(n2cc(F)c(=O)[nH]c2=O)C1O (stereo not drawn) | > 100 µM | > 100 µM | > 100 µM | 28.5 µM | > 100 µM | > 100 µM | > 100 µM | > 100 µM | > 100 µM | > 100 µM |  |  |  |  |  |  |  |  |  | 
25 | Cc1cnoc1NS(=O)(=O)c1ccc(Nc2nnc(/C=C/c3c(O)ccc4ccccc34)c(=O)n2N)cc1 | > 100 µM | 53.9 µM | > 100 µM |  |  | 52.5 µM | 95.3 µM |  |  | 47.5 µM |  |  |  |  |  |  |  |  |  | 
26 | COC1CC(CC2CCC(C)C(C(C)C(=O)O)O2)OC2(OC(C)(C3CCC(C)(C4OC(C5OC(O)(CO)C(C)CC5C)CC4C)O3)CC2C)C1C (stereo not drawn) | 46.3 µM | 27.7 µM | 17.9 µM | 2.67 µM | 22 µM | 4.44 µM | 23.7 µM | 11.9 µM | 11.9 µM | > 27.9 µM |  |  |  |  |  |  |  |  |  | 
27 | COC(=S)OC1CC(n2cnc3c(N)ncnc32)OC1CO[Si](C)(C)C(C)(C)C (stereo not drawn) | 60.1 µM | 64.1 µM | > 100 µM | 39.8 µM | 48.1 µM | 24 µM | 48.6 µM | 89.8 µM | 28.1 µM | 44.8 µM |  |  |  |  |  |  |  |  |  | 
28 | COc1cc2c(cc1C)NC(=O)/C2=C/c1c(Cl)n(-c2ccccc2)c2ccccc12 | 69.7 µM | 66.5 µM | 38.7 µM | 18.5 µM | 30.4 µM | 73.5 µM | 23.6 µM | > 100 µM | 64.3 µM | > 100 µM |  |  |  |  |  |  |  |  |  | 
29 | NC(=S)N1N=C(c2ccccc2O)CC1c1ccccc1 (stereo not drawn) | 49.8 µM | 75 µM | > 100 µM | 26.5 µM | 35.6 µM | 29.7 µM | 45.3 µM | 43.4 µM | 43.8 µM | 20.8 µM |  |  |  |  |  |  |  |  |  | 
30 | CCCN1C(=O)CSC1=Nc1ccc2cc3ccc(N=C4SCC(=O)N4CCC)cc3nc2c1 | > 100 µM | > 100 µM | > 100 µM | > 100 µM | > 100 µM | > 100 µM | > 100 µM | > 100 µM | > 100 µM | > 100 µM | 39.4 µM | 46.5 µM | > 100 µM | > 100 µM | 77.6 µM | 66.3 µM | 85.9 µM | > 100 µM | 35.9 µM | 48.2 µM
31 | COc1cc2c(cc1OCCCCCCCCN1C(=O)c3cccc4cccc(c34)C1=O)N=C[C@@H]1CCCN1C2=O | 9.72 µM | 35.1 µM | > 100 µM | 21.7 µM | 72 µM | 28.4 µM | 63.9 µM | 52 µM | 25.3 µM | 22.3 µM |  |  |  |  |  |  |  |  |  | 
32 | N#Cc1c(N)nc2c(c1-c1ccc(Br)cc1)CSc1ccccc1-2 | > 100 µM | > 100 µM | > 100 µM | 32.2 µM | > 100 µM | 78.1 µM | > 100 µM | > 100 µM | > 100 µM | > 100 µM |  |  |  |  |  |  |  |  |  | 
